Assays:
[1] = tested on: Human breast cancer MDA-MB-361 cells; experiment: Pharmacodynamic study on mouse MDA-MB-361 model (subcutaneous xenograft); format: in vivo, SCID Beige mice; settings: for inhibitory effect on the tumor growth (in words): 15 mg/kg, continuous PO administration for 28 days; for Tumor volume (day 0): baseline at start of dosing; for Tumor volume (day 0) / Tumor volume (day 28) / T/C relative tumor proliferation rate / TGI tumor growth inhibition: methanesulfonic acid salt, 15 mg/kg PO × 28 days; for T/C relative tumor proliferation rate / TGI tumor growth inhibition: day 28
[2] = tested on: Human colorectal cancer Colo-205 cells; experiment: Pharmacodynamic study on mouse Colo-205 model (subcutaneous xenograft); format: in vivo, BALB/c nude mice
Description: BALB/c nude mice, 6-8 weeks old, weighing 12-14 g, female, provided by Shanghai Lab Animal Research Center (Shanghai Xipuer-Beikai) with an animal certificate No: 2008001682093.
The experiment was started after 3-7 days in the experimental environment when the animals arrived. Animals were housed in IVC (independent air supply system) cages (Four animals per cage) in SPF grade experimental animal facilities. Each cage animal information card contained the number of animals in the cage, sex, strain, receiving date, dosing schedule, experiment number, group and start date of the experiment. All cages, bedding, and drinking water were sterilized before use and were updated twice a week.
4.3 Tumor Cell Inoculation Method
Human colorectal cancer Colo-205 cells (ATCC-CCL-222) were cultured in vitro in monolayer under the conditions of RPMI 1640 medium with 10% fetal bovine serum, 100 U/mL penicillin and 100 μg/mL streptomycin, and 37° C. 5% CO2 incubator. The passage was routinely digested with trypsin-EDTA twice a week. When the cell saturation was up to 80%-90% and reached the requirement, the cells were collected, counted and inoculated. 0.2 mL (5×10^6) Colo-205 cells were subcutaneously inoculated on the right back of each mouse, and mice were randomly grouped and dosed when the average tumor volume reached 163 mm^3.
4.14 mL of lactic acid was added to a large beaker containing 800 mL of deionized water, and the pH was adjusted to 4.0 with 5 N NaOH. Then the volume was fixed to 1,000 mL to obtain 50 mmol/L sodium lactate buffer.
The subcutaneous tumor volume of nude mice was measured 2-3 times a week, and the mice were weighed, and the data were recorded.
4.6 Analysis and Evaluation
Experimental evaluation index: the tumor growth inhibition rate TGI (%) or the relative tumor proliferation rate T/C (%) was used for evaluation, wherein T was the experimental group, and C was the vehicle group.

[3] = Colo-205 model, mesylate, 50 mg/kg PO × 28 days, day 28

SMILES	inhibitory effect on the tumor growth (in words) [1]	Tumor volume (day 0) [1] [mm^3]	Tumor volume (day 28) [1] [mm^3]	T/C relative tumor proliferation rate [1] [%]	TGI tumor growth inhibition [1] [%]	Tumor volume (day 0) ([2]; Colo-205 model, baseline at start of dosing, mesylate, 50 mg/kg PO × 28 days) [mm^3]	antitumor effect compared with Abemaciclib (in words) ([2]; Colo-205 model, same dosage (50 mg/kg PO × 28 days))	Tumor volume (day 28) ([2]; Colo-205 model, mesylate, 50 mg/kg PO × 28 days) [mm^3]	T/C relative tumor proliferation rate [2, 3] [%]	TGI tumor growth inhibition rate [2, 3] [%]	inhibitory effect on the tumor growth (in words) ([2]; Colo-205 nude mouse model, 50 mg/kg, continuous PO administration for 28 days)
CCN1CCC(C(C)c2ccc(Nc3ncc(F)c(-c4cc(F)c5nc(C)n(C(C)C)c5c4)n3)nc2)CC1 (single isomer, unassigned) [Example 17, (R or S)—N-(5-(1-(1-ethylpiperidin-4-yl)ethyl)pyridin-2-yl)-5-fluoro-4-(4-fluoro-1-isopropyl-2-methyl-1H-benzo[d]imidazol-6-yl) pyrimidin-2-amine]	very strong inhibitory effect	175	90	−49	149	198	better antitumor effect than positive control compound Abemaciclib	591	18.2	81.8	strong inhibitory effect
CCN1CCC(=Cc2ccc(Nc3ncc(F)c(-c4cc(F)c5nc(C)n(C(C)C)c5c4)n3)nc2)CC1 [Example 57, N-(5-((1-ethylpiperidin-4-ylidene)methyl)pyridin-2-yl)-5-fluoro-4-(4-fluoro-1-isopropyl-2-methyl-1H-benzo[d]imidazol-6-yl)pyrimidin-2-amine]	very strong inhibitory effect	175	99	−43	143						

Reference: patent US11179391B2, “Compound with kinase inhibitory activity and preparation method and use thereof” (priority 2017, dated 2021)
